{"source": "patent US7749548B2", "about": "“Composite for the improvement of the smell of the armpit” (Ajou Medics Co., Ltd., priority 2004, dated 2010)", "format_in_all_cases": "in vivo, human", "key": {"[1]": {"system": "sweat bromidrosis (axillary odor) of volunteers", "assay": "Self-assessment of improvement of armpit odor by individual queries, 4 weeks of spraying twice a day", "conditions": "after 4 weeks", "text": "1. Application of Medical Treatment Composition of Example 1\n2) Volunteers are selected from the group who can smell the ordor of sweat bromidrosis by sanitary cotton method and who smell over “mild” class.\n3) Fifteen volunteers who were fitted for the above criteria and smell over “mild” class were selected.\n(§1) Group I Test group with the composition of example 1\n(§2) No one was allowed to use other cosmetics, perfume, and anti-germ soap not to influence any result.\nSubjective judgment of odor degree through individual queries, which include:\n4) degrees of improvement of odor level during the period of application; and\nD) Percentage of Improvement by Self-Assessment\nThe degree of improvement of ordor after 4 weeks were measured by self-assessment. All of 15 persons replied over 50% of improvement in the experimental group, while 10 persons in comparison group expressed positive improvement and four persons' replied negative."}, "[2]": {"system": "axillary odor of volunteers with sweat bromidrosis", "assay": "Measurement of axillary odor by sanitary cotton, graded by two medical doctors", "text": "1) Sanitary cottons are kept in both armpits for ten minutes by two medical doctors' inspection of armpit odor for classification of 4 grades.\n“minimal” is almost smell-less;\n“mild” is available smell within distance of 15 cm;\n“moderate” is further than distance of 15 cm; and\n“severe” is beyond the distance of 30 cm.\nas §1, §2\nMeasurements of axillary odor were decided according to the smell degree by means of sanitary cotton, which were classified into four (4) grades. Namely, sanitary cottons are kept in both armpits for ten minutes by two medical doctors' inspection of armpit odor for classification of 4 grades as shown in the Table 1:\n(2) Judgment of Results: After two (2) and four (4) weeks of the application of the composition, the odor grades were judged by means of sanitary cottons from both armpits of the participants.\nMeasurement of axillary ordor was carried out by two medical doctors by using sanitary cottons in order to evaluate objectively as shown below"}, "[3]": {"assay": "Side-effects reported by the volunteers during the 4-week application", "conditions": "4 weeks, twice a day"}, "[4]": {"conditions": "sprayed twice a day in armpit, 15 volunteers"}, "[5]": {"conditions": "15 volunteers, objective odor grade"}}}
{"smiles": "CCO", "note": "[80% ethanol, ethanol]", "values": [{"measurement": "Persons who expressed positive improvement (self-assessment)", "setting": "[1]; of 15", "value": 10, "unit": "persons"}, {"measurement": "Persons who replied negative (self-assessment)", "setting": "[1]; of 15", "value": "four"}, {"measurement": "Percentage of improvement by self-assessment: Got worse", "setting": "[1]; [4]", "value": "0 (0%) persons (%)"}, {"measurement": "Percentage of improvement by self-assessment: Improved 25%", "setting": "[1]; [4]", "value": "1 (7%) persons (%)"}, {"measurement": "Percentage of improvement by self-assessment: Improved 50%", "setting": "[1]; [4]", "value": "2 (13%) persons (%)"}, {"measurement": "Percentage of improvement by self-assessment: Improved 75%", "setting": "[1]; [4]", "value": "7 (47%) persons (%)"}, {"measurement": "Percentage of improvement by self-assessment: Improved 100%", "setting": "[1]; [4]", "value": "1 (7%) persons (%)"}, {"measurement": "Percentage of improvement by self-assessment: Not applicable", "setting": "[1]; [4]", "value": "4 (27%) persons (%)"}, {"measurement": "Degree of improvement: 1stage of improvement", "setting": "[2]; 15 volunteers, after 4 weeks", "value": "6 (40%) persons (%)"}, {"measurement": "Degree of improvement: 2 stage or more of improvement", "setting": "[2]; 15 volunteers, after 4 weeks", "value": "1 (7%) persons (%)"}, {"measurement": "Degree of improvement: no improvement", "setting": "[2]; 15 volunteers, after 4 weeks", "value": "8 (53%) persons (%)"}, {"measurement": "Initiating period of improvement: After 2 weeks", "setting": "[2]; [5]", "value": "1 (7%) persons (%)"}, {"measurement": "Initiating period of improvement: Not improved", "setting": "[2]; [5]", "value": "8 (53%) persons (%)"}, {"measurement": "Initiating period of improvement: Within 2 weeks", "setting": "[2]; [5]", "value": "6 (40%) persons (%)"}, {"measurement": "Persons who showed improvement of odor grade", "setting": "[2]; after 4 weeks, out of 15", "value": 7, "unit": "persons"}, {"measurement": "Persons among the improved who showed 2 stages or more of improvement", "setting": "[2]; after 4 weeks, listed as Group II", "value": "one and One"}, {"measurement": "Persons among the improved with improvement after two weeks application", "setting": "[2]; after two weeks application", "value": 6, "unit": "persons"}, {"measurement": "Number and percentage of side-effect: No side-effect", "setting": "[3]", "value": "12 (80%) persons (%)"}, {"measurement": "Number and percentage of side-effect: Side effect", "setting": "[3]; slight tingle feel right after application", "value": "3 (20%) persons (%)"}]}
